Experimental data as given in ChEMBL document CHEMBL4507298 (2021).

Experiments:
[1] = target: Adrenergic receptor alpha-1 (Homo sapiens) (UniProt P35348+P25100+P35368); test: alpha 1 (non- selective) CEREP ligand profiling; assay type: protein assay; conditions: Compound concentration 10.0 uM
[2] = target: T1, Alpha-2A adrenergic receptor (Homo sapiens) (UniProt P08913); test: alpha 2A (h) CEREP ligand profiling; conditions: Compound concentration 10.0 uM
T1 sequence (whole entry): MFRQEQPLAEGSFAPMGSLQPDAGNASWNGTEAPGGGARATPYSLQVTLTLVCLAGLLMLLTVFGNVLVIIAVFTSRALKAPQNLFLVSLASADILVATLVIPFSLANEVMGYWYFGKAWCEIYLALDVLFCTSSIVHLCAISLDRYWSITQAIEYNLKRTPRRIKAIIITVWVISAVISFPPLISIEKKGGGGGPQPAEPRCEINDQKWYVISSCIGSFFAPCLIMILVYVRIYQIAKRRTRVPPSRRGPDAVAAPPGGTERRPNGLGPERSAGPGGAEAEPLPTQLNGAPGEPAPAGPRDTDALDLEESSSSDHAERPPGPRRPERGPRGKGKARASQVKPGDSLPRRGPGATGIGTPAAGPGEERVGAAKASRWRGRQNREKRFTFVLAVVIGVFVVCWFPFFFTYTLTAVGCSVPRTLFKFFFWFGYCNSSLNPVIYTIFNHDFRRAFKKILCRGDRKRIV

[3] = target: Type-1 angiotensin II receptor (Homo sapiens) (UniProt P30556); test: AT1 (h) CEREP ligand profiling; conditions: Compound concentration 10.0 uM
[4] = target: Beta-2 adrenergic receptor (Homo sapiens) (UniProt P07550); test: beta 2 (h) CEREP ligand profiling; conditions: Compound concentration 10.0 uM
[5] = target: C-X-C chemokine receptor type 4 (Homo sapiens) (UniProt P61073); test: CXCR4 (h) CEREP ligand profiling; conditions: Compound concentration 10.0 uM
[6] = target: GABA-A receptor; anion channel (Homo sapiens) (UniProt P14867+P47870+P18507+P28472+P48169+Q99928+Q9UN88+P34903+O00591+O14764+Q8N1C3+P18505+P78334+P47869+P31644+Q16445); test: GABAA BZD (central) CEREP ligand profiling; assay type: protein-complex assay; conditions: Compound concentration 10.0 uM
[7] = target: T2, Muscarinic acetylcholine receptor M1 (Homo sapiens) (UniProt P11229); test: M1 (h) CEREP ligand profiling; conditions: Compound concentration 10.0 uM
T2 sequence (whole entry): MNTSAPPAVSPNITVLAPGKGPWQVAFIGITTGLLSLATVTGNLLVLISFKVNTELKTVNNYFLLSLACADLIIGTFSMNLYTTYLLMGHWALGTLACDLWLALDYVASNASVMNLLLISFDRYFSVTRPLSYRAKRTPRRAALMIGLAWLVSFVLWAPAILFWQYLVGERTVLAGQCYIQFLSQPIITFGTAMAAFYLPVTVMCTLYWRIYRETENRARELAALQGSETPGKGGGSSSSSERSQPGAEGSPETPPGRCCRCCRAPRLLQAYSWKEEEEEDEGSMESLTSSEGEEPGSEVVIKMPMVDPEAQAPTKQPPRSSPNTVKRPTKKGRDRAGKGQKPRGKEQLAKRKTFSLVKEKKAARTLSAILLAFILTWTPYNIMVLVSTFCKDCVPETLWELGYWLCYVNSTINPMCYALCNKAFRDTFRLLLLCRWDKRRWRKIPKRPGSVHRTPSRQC

[8] = target: Melanocyte-stimulating hormone receptor (Homo sapiens) (UniProt Q01726); test: MC1 CEREP ligand profiling; conditions: Compound concentration 10.0 uM
[9] = target: Phosphodiesterase 6 (Homo sapiens) (UniProt Q13956+P18545+P35913+O43924+P16499+P51160); test: PDE6 CEREP ligand profiling; assay type: protein assay; conditions: Compound concentration 10.0 uM
[10] = tested on: ALK tyrosine kinase receptor (Homo sapiens), Q9UM73 [C1156Y]; conditions: Compound concentration 1000.0 nM
[11] = target: Calcium/calmodulin-dependent protein kinase kinase 1 (Homo sapiens) (UniProt Q8N5S9); conditions: Compound concentration 1000.0 nM
[12] = target: Cyclin-dependent kinase 19 (Homo sapiens) (UniProt Q9BWU1); conditions: Compound concentration 1000.0 nM
Sequence of Cyclin-dependent kinase 19 (Homo sapiens) (Q9BWU1 whole entry): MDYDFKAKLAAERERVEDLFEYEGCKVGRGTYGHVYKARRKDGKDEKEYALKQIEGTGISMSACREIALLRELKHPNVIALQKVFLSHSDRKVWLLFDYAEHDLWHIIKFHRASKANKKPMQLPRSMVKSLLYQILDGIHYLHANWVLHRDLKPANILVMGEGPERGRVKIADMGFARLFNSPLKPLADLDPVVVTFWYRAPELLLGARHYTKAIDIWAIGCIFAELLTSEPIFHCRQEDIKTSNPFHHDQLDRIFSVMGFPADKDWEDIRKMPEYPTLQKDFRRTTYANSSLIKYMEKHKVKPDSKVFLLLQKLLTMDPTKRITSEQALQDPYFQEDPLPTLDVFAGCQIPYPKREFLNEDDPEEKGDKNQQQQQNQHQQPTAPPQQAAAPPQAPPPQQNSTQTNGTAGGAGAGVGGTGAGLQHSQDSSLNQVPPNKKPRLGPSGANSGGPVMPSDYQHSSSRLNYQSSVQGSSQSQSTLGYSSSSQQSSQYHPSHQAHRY

[13] = target: Myotonin-protein kinase (Homo sapiens) (UniProt Q09013); conditions: Compound concentration 1000.0 nM
[14] = target: Eukaryotic translation initiation factor 2-alpha kinase 1 (Homo sapiens) (UniProt Q9BQI3); conditions: Compound concentration 1000.0 nM
Sequence of Eukaryotic translation initiation factor 2-alpha kinase 1 (Homo sapiens) (Q9BQI3 whole entry): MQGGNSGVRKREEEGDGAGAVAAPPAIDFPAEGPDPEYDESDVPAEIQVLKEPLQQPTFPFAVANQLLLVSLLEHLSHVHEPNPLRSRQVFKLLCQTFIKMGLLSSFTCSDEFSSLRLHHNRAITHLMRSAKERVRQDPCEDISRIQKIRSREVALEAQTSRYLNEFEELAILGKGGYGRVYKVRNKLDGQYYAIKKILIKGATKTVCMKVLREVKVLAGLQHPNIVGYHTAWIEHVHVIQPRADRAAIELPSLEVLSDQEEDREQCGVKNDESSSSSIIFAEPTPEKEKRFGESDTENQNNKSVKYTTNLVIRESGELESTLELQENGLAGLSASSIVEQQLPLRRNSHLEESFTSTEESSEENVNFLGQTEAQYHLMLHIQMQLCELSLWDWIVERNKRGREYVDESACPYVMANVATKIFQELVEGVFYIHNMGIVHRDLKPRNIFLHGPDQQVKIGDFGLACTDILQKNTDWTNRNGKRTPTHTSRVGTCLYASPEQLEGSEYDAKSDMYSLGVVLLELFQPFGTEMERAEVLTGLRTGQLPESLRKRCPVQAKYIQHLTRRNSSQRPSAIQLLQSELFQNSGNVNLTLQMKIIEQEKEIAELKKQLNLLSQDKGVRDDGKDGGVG

[15] = target: Ephrin type-A receptor 1 (Homo sapiens) (UniProt P21709); conditions: Compound concentration 1000.0 nM
Sequence of Ephrin type-A receptor 1 (Homo sapiens) (P21709 whole entry): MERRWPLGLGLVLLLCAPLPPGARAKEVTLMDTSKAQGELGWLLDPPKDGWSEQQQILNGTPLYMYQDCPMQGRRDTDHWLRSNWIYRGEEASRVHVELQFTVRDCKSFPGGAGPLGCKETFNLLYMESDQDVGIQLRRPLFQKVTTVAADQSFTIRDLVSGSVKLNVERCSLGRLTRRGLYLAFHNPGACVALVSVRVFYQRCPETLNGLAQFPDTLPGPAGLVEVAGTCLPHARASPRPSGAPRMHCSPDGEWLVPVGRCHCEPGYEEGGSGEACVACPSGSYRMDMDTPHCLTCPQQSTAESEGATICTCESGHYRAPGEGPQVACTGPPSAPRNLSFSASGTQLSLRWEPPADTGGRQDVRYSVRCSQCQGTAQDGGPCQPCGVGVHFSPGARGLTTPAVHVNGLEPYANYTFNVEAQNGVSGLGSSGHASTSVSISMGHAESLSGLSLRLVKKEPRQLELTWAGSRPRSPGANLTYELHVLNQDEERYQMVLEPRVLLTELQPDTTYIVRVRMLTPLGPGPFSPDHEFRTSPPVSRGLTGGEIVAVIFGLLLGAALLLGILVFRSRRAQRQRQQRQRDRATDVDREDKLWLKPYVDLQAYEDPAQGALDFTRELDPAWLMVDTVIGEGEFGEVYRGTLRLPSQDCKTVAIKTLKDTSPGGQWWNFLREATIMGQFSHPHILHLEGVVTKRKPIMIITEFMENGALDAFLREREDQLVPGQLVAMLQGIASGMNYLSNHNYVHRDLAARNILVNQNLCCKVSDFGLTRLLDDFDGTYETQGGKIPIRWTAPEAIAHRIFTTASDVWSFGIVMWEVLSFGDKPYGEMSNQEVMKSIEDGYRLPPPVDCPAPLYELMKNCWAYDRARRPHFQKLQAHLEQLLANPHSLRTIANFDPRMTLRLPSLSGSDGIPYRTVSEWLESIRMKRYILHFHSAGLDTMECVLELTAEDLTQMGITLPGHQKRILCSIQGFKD

[16] = target: Ephrin type-A receptor 3 (Homo sapiens) (UniProt P29320); conditions: Compound concentration 1000.0 nM
[17] = target: Mitogen-activated protein kinase 6 (Homo sapiens) (UniProt Q16659); conditions: Compound concentration 1000.0 nM
Sequence of Mitogen-activated protein kinase 6 (Homo sapiens) (Q16659 whole entry): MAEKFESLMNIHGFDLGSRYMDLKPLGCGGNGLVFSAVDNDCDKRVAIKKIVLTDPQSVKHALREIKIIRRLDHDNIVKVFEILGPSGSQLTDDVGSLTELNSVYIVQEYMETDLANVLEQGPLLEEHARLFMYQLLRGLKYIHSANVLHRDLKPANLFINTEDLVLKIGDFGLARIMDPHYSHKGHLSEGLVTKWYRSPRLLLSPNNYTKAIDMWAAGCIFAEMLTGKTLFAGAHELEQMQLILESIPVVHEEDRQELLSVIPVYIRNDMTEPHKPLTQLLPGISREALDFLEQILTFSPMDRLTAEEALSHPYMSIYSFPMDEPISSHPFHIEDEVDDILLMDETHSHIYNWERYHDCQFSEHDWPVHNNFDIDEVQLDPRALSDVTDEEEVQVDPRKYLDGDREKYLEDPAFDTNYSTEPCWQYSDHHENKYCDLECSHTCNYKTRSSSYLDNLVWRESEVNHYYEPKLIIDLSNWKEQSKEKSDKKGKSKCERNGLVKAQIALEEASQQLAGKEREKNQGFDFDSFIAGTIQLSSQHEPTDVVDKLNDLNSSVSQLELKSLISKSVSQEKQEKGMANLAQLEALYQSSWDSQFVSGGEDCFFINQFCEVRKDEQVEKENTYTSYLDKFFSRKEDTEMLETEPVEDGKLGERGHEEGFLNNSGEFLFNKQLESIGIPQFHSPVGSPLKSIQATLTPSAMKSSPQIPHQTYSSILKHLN

[18] = target: Cyclin-G-associated kinase (Homo sapiens) (UniProt O14976); conditions: Compound concentration 1000.0 nM
[19] = target: Serine/threonine-protein kinase ICK (Homo sapiens) (UniProt Q9UPZ9); conditions: Compound concentration 1000.0 nM
[20] = target: Mitogen-activated protein kinase 10 (Homo sapiens) (UniProt P53779); conditions: Compound concentration 1000.0 nM
Sequence of Mitogen-activated protein kinase 10 (Homo sapiens) (P53779 whole entry): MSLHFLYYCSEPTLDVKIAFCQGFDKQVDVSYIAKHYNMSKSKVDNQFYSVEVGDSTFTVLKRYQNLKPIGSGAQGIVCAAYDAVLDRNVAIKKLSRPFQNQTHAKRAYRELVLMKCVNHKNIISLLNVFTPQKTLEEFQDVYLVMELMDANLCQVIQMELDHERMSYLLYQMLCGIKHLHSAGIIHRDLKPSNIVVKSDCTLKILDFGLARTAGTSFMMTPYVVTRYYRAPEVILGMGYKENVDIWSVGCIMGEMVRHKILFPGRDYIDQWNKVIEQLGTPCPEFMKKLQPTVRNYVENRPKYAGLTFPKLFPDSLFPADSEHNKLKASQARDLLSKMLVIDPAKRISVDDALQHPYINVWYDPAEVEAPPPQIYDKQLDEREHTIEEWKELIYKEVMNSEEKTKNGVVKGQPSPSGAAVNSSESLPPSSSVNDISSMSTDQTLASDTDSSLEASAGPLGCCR

[21] = target: Mitogen-activated protein kinase kinase kinase 2 (Homo sapiens) (UniProt Q9Y2U5); conditions: Compound concentration 1000.0 nM
[22] = target: MAP kinase-interacting serine/threonine-protein kinase 2 (Homo sapiens) (UniProt Q9HBH9); conditions: Compound concentration 1000.0 nM
[23] = target: Serine/threonine-protein kinase SIK3 (Homo sapiens) (UniProt Q9Y2K2); conditions: Compound concentration 1000.0 nM
[24] = target: Proto-oncogene tyrosine-protein kinase ROS (Homo sapiens) (UniProt P08922); conditions: Compound concentration 1000.0 nM
[25] = target: Serine/threonine-protein kinase Sgk2 (Homo sapiens) (UniProt Q9HBY8); conditions: Compound concentration 1000.0 nM
[26] = target: Tyrosine-protein kinase receptor Tie-1 (Homo sapiens) (UniProt P35590); conditions: Compound concentration 1000.0 nM
[27] = target: Serine/threonine-protein kinase tousled-like 1 (Homo sapiens) (UniProt Q9UKI8); conditions: Compound concentration 1000.0 nM
[28] = target: High affinity nerve growth factor receptor (Homo sapiens) (UniProt P04629); conditions: Compound concentration 1000.0 nM
[29] = target: Mitogen-activated protein kinase kinase kinase 19 (Homo sapiens) (UniProt Q56UN5); conditions: Compound concentration 1000.0 nM
Sequence of Mitogen-activated protein kinase kinase kinase 19 (Homo sapiens) (Q56UN5 whole entry): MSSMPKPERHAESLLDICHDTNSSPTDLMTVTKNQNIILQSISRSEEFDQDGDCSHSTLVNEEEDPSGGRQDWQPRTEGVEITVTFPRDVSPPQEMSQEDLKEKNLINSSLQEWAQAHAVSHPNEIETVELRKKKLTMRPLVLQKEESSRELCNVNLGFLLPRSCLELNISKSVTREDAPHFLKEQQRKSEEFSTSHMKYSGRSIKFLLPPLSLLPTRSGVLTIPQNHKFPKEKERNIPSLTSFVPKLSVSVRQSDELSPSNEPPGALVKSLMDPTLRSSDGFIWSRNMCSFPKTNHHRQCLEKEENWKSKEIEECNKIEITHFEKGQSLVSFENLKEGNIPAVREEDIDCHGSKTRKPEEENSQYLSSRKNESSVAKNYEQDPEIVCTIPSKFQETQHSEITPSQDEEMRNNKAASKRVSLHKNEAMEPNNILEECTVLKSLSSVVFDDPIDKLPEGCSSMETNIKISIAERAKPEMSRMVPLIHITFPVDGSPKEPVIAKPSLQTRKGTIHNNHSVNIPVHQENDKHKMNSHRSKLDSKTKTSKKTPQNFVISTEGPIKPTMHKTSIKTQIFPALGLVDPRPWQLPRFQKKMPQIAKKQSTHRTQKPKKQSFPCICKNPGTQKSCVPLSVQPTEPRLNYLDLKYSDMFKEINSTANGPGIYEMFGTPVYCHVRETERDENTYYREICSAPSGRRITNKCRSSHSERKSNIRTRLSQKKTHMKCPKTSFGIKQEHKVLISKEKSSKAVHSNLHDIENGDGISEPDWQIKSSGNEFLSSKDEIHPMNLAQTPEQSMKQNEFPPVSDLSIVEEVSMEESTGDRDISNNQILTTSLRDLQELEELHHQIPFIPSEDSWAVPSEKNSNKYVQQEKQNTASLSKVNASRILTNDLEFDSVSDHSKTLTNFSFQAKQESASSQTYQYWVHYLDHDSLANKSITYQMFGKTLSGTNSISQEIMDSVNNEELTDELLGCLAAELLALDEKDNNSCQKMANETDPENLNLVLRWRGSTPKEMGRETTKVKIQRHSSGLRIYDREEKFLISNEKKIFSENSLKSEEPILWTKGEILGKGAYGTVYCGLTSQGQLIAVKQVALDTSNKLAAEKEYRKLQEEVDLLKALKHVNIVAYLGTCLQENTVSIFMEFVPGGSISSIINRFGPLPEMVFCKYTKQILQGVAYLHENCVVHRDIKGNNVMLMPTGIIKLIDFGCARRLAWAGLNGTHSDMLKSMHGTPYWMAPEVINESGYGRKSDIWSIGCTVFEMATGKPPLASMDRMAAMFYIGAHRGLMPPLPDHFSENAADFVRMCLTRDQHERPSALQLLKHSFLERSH

[30] = target: Mu-type opioid receptor (Homo sapiens) (UniProt P35372); conditions: Compound concentration 10.0 uM
Histamine H4 receptor = Histamine H4 receptor (Homo sapiens, UniProt Q9H3N8); test: GPCRScan assay: inhibition of H4; set-up: radioligand conc. used [nm] 1.0 – 5.0, parental cells HEK T
Sequence of Histamine H4 receptor (Q9H3N8 whole entry): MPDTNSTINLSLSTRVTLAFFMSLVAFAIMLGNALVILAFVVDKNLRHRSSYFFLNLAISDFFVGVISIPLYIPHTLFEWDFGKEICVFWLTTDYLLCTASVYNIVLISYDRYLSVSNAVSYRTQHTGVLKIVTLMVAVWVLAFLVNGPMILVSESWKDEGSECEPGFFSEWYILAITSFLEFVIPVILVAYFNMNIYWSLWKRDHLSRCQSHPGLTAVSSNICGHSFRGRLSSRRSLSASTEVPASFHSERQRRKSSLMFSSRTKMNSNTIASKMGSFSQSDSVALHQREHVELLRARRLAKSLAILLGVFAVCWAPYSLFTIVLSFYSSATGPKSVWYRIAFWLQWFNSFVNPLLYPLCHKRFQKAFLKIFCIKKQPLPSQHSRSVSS

[31] = target: Sodium-dependent dopamine transporter (Homo sapiens) (UniProt Q01959); conditions: Compound concentration 10.0 uM

SMILES: COc1ccc2cc(OCC3(C(=O)O)CN(C(=O)c4ccc(F)cc4)C3)ccc2c1 [PF-04418948]
- inhibition [1]: 9%
- inhibition [2]: 26%
- inhibition [3]: 1%
- inhibition [4]: -4%
- inhibition [5]: 4%
- inhibition [6]: 10%
- inhibition [7]: 9%
- inhibition [8]: 6%
- inhibition [9]: 3%
- residual activity [10]: 79%
- residual activity [11]: 91%
- residual activity [12]: 95%
- residual activity [13]: 76%
- residual activity [14]: 94%
- residual activity [15]: 83%
- residual activity [16]: 92%
- residual activity [17]: 88%
- residual activity [18]: 88%
- residual activity [19]: 78%
- residual activity [20]: 85%
- residual activity [21]: 96%
- residual activity [22]: 96%
- residual activity [23]: 72%
- residual activity [24]: 81%
- residual activity [25]: 87%
- residual activity [26]: 100%
- residual activity [27]: 87%
- residual activity [28]: 71%
- residual activity [29]: 82%
- inhibition [30]: 1.07%

SMILES: O=C(c1ccc(F)cc1)N1CC(COc2ccc(Br)cc2)(C(=O)O)C1 [PF-04475866]
- Ki (Histamine H4 receptor): 10 µM
- inhibition [31]: 6.07%
